According to PubChem BioAssay AID256 (DTP/NCI, 2004):
Several values for one entry are separate records, joined by “and”; a condition that tells them apart may be missing. Equal values may be shown once. Inconclusive results and toxic doses are left out. How the source made its calls: active means survival T/C of 150% or more; inactive means T/C below 125% in these data.

System: CD2F1 mice, L1210 leukemia ip, survival T/C
Assay: NCI In Vivo Anticancer Drug Screen. Data for tumor model L1210 Leukemia (intraperitoneal) in CD2F1 (CDF1) mice
Conditions: higher = longer survival
Method in brief: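 Activity against a transplanted murine tumor was judged by comparing the compound group with a vehicle group. The outcome in the treated animals was divided by that in the controls.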

[1] = endpoint: mean survival time, dose: 100.0 mg/kg/injection, schedule: Q01DX001 (ip), vehicle: saline with Tween-80
[2] = endpoint: mean survival time, dose: 200.0 mg/kg/injection, schedule: Q01DX001 (ip), vehicle: saline with Tween-80
[3] = endpoint: mean survival time, dose: 100.0 mg/kg/injection, schedule: Q04DX003 (ip), vehicle: saline with Tween-80
[4] = endpoint: mean survival time, dose: 200.0 mg/kg/injection, schedule: Q04DX003 (ip), vehicle: saline with Tween-80
[5] = endpoint: mean survival time, dose: 400.0 mg/kg/injection, schedule: Q04DX003 (ip), vehicle: saline with Tween-80
[6] = endpoint: mean survival time, dose: 100.0 mg/kg/injection, schedule: Q04DX003 (ip), vehicle: saline
[7] = endpoint: mean survival time, dose: 200.0 mg/kg/injection, schedule: Q04DX003 (ip), vehicle: saline
[8] = endpoint: mean survival time, dose: 100.0 mg/kg/injection, schedule: Q01DX009 (ip), vehicle: saline with Tween-80
[9] = endpoint: mean survival time, dose: 200.0 mg/kg/injection, schedule: Q01DX009 (ip), vehicle: saline with Tween-80
[10] = endpoint: mean survival time, dose: 50.0 mg/kg/injection, schedule: Q01DX009 (ip), vehicle: saline with Tween-80
[11] = endpoint: mean survival time, dose: 400.0 mg/kg/injection, schedule: Q01DX009 (ip), vehicle: saline with Tween-80
[12] = endpoint: mean survival time, dose: 25.0 mg/kg/injection, schedule: Q04DX003 (ip), vehicle: saline with Tween-80
[13] = endpoint: mean survival time, dose: 50.0 mg/kg/injection, schedule: Q04DX003 (ip), vehicle: saline with Tween-80
[14] = endpoint: mean survival time, dose: 25.0 mg/kg/injection, schedule: Q04DX003 (ip), vehicle: Klucel (hydroxypropylcellulose) (HPC)
[15] = endpoint: mean survival time, dose: 50.0 mg/kg/injection, schedule: Q04DX003 (ip), vehicle: Klucel (hydroxypropylcellulose) (HPC)
[16] = endpoint: mean survival time, dose: 100.0 mg/kg/injection, schedule: Q04DX003 (ip), vehicle: Klucel (hydroxypropylcellulose) (HPC)
[17] = endpoint: mean survival time, dose: 100.0 mg/kg/injection, schedule: Q01DX001 (ip), vehicle: saline
[18] = endpoint: mean survival time, dose: 200.0 mg/kg/injection, schedule: Q01DX001 (ip), vehicle: saline
[19] = endpoint: mean survival time, dose: 400.0 mg/kg/injection, schedule: Q01DX001 (ip), vehicle: saline

Measured: T/C

CC(=O)OCC(OC(C)=O)C1OC(OC2CCCCC2)C(OC(C)=O)C(OC(C)=O)C1OC(C)=O (stereo not drawn)
inactive: [1] 93 % of control | [2] 98 % of control | endpoint: mean survival time, dose: 400.0 mg/kg/injection, schedule: Q01DX001 (ip), vehicle: saline with Tween-80 88 % of control

COC12C(COC(N)=O)C3=C(C(=O)C(C)=C(NC(C)C)C3=O)N1CC1NC12 (stereo not drawn)
inactive: endpoint: mean survival time, dose: 1.5 mg/kg/injection, schedule: Q01DX001 (ip), vehicle: water 96 % of control (2×) and 102 % of control | endpoint: mean survival time, dose: 48.0 mg/kg/injection, schedule: Q01DX001 (ip), vehicle: water 87 % of control

CCCCCCCCCCCCCCCCOc1ccc(S(=O)(=O)NC(C)(C)C)cc1[N+](=O)[O-]
inactive: [3] 105 % of control | [4] 96 % of control | [5] 94 % of control

c1ccc2[nH]c(CCCCc3nc4ccccc4[nH]3)nc2c1
inactive: [6] 104 % of control | [7] 100 % of control

IC1CCC[N-]C1.IC1CCC[N-]C1.[Cl][Pt+2][Cl] (stereo not drawn)
inactive: endpoint: mean survival time, dose: 50.0 mg/kg/injection, schedule: Q01DX001 (ip), vehicle: saline with Tween-80 95 % of control | [1] 93 % of control | [2] 95 % of control

COC(=O)C(Cc1ccc(N(CCCl)CCCl)cc1)N=NNc1nc[nH]c1C(N)=O (stereo not drawn)
inactive: endpoint: mean survival time, dose: 88.0 mg/kg/injection, schedule: Q01DX001 (ip), vehicle: steriod suspending solution 116 % of control | endpoint: mean survival time, dose: 133.0 mg/kg/injection, schedule: Q01DX001 (ip), vehicle: steriod suspending solution 115 % of control | endpoint: mean survival time, dose: 300.0 mg/kg/injection, schedule: Q01DX001 (ip), vehicle: steriod suspending solution 116 % of control

CC(=O)NC1=NC(=O)/C(=C/Cc2cccs2)N1C
inactive: [8] 101 % of control | [9] 108 % of control

COc1cc(OC)c(NC(=O)Nc2ccc(C(=O)O)cc2)cc1Cl
inactive: [10] 89 % of control | [8] 100 % of control | [9] 96 % of control

Cc1ccc2nc(-c3ccc4nc(-c5ccc(N)cc5)sc4c3)sc2c1
inactive: [10] 94 % of control | [8] 97 % of control | [9] 94 % of control

COc1cc(CN(C)CCO)ccc1OCc1ccccc1
inactive: [3] 102 % of control | [4] 96 % of control

CC(C)(CNC1=NCCO1)NC1=NCCO1
inactive: [6] 104 % of control | [7] 104 % of control

O=C(Nc1ccc(Cl)cc1)Nc1ccccc1F
inactive: [8] 97 % of control | [9] 103 % of control | [11] 105 % of control

O=[N+]([O-])c1cc([N+](=O)[O-])c2nc3ccccn3c2c1
inactive: [3] 101 % of control | [4] 101 % of control | [5] 101 % of control

O=C(CSC1=NCCN1)c1ccc([N+](=O)[O-])cc1
inactive: [12] 94 % of control | [13] 93 % of control | [3] 93 % of control

NC(=O)c1csc(COCC(O)CO)n1 (stereo not drawn)
inactive: endpoint: median survival time, dose: 33.0 mg/kg/injection, schedule: Q01DX009 (ip), vehicle: water 101 % of control | endpoint: median survival time, dose: 66.0 mg/kg/injection, schedule: Q01DX009 (ip), vehicle: water 103 % of control | endpoint: median survival time, dose: 132.0 mg/kg/injection, schedule: Q01DX009 (ip), vehicle: water 107 % of control | endpoint: median survival time, dose: 264.0 mg/kg/injection, schedule: Q01DX009 (ip), vehicle: water 101 % of control

NCc1ccc(N)cc1
inactive: endpoint: mean survival time, dose: 75.0 mg/kg/injection, schedule: Q01DX001 (ip), vehicle: saline 98 % of control | endpoint: mean survival time, dose: 150.0 mg/kg/injection, schedule: Q01DX001 (ip), vehicle: saline 95 % of control | endpoint: mean survival time, dose: 300.0 mg/kg/injection, schedule: Q01DX001 (ip), vehicle: saline 96 % of control

NC(=O)c1nccnc1C(N)=O
inactive: endpoint: mean survival time, dose: 100.0 mg/kg/injection, schedule: Q01DX001 (ip), vehicle: Klucel (hydroxypropylcellulose) (HPC) 101 % of control | endpoint: mean survival time, dose: 200.0 mg/kg/injection, schedule: Q01DX001 (ip), vehicle: Klucel (hydroxypropylcellulose) (HPC) 108 % of control | endpoint: mean survival time, dose: 400.0 mg/kg/injection, schedule: Q01DX001 (ip), vehicle: Klucel (hydroxypropylcellulose) (HPC) 101 % of control

COC12CC(COC(=O)c3cncc(Br)c3)CN(C)C1Cc1cn(C)c3cccc2c13 (stereo not drawn)
inactive: endpoint: mean survival time, dose: 100.0 mg/kg/injection, schedule: Q04DX003 (ip), vehicle: alcohol 105 % of control | endpoint: mean survival time, dose: 200.0 mg/kg/injection, schedule: Q04DX003 (ip), vehicle: alcohol 102 % of control | endpoint: mean survival time, dose: 400.0 mg/kg/injection, schedule: Q04DX003 (ip), vehicle: alcohol 111 % of control

CNC(Cc1ccccc1)c1ccccc1 (stereo not drawn)
inactive: [12] 91 % of control | [13] 93 % of control | [3] 95 % of control and 97 % of control

CCCC(C)CC1CCC(N)CC1 (stereo not drawn)
inactive: endpoint: mean survival time, dose: 100.0 mg/kg/injection, schedule: Q04DX002 (ip), vehicle: saline 96 % of control | endpoint: mean survival time, dose: 200.0 mg/kg/injection, schedule: Q04DX002 (ip), vehicle: saline 96 % of control

CN(C(=O)c1c(Cl)n(C)c2ccccc12)c1ccccc1
inactive: [14] 98 % of control | [15] 101 % of control | [16] 104 % of control

O=C(Oc1ccccc1Cl)c1ccccc1
inactive: [8] 100 % of control | [3] 105 % of control | [9] 98 % of control | [4] 100 % of control | [11] 108 % of control | [5] 111 % of control

CCCN(CCC)S(=O)(=O)c1ccc(NC(=O)Oc2cc(C)ccc2C(C)C)cc1
inactive: [17] 100 % of control | [18] 95 % of control | [19] 94 % of control

COCNC(=S)N/N=C/c1ccc(O)cn1
inactive: endpoint: mean survival time, dose: 100.0 mg/kg/injection, schedule: Q04DX002 (ip), vehicle: saline with Tween-80 95 % of control | endpoint: mean survival time, dose: 200.0 mg/kg/injection, schedule: Q04DX002 (ip), vehicle: saline with Tween-80 98 % of control | endpoint: mean survival time, dose: 400.0 mg/kg/injection, schedule: Q04DX002 (ip), vehicle: saline with Tween-80 102 % of control

Cc1cccc(CC(F)F)c1
inactive: [13] 109 % of control | [1] 104 % of control | [3] 97 % of control | [2] 103 % of control | [4] 96 % of control

CC(=O)OCC1OC(OC(C)=O)C(NC(=O)N(CCN(C)CCO)N=O)C(OC(C)=O)C1OC(C)=O (stereo not drawn)
inactive: endpoint: mean survival time, dose: 4.06 mg/kg/injection, schedule: Q04DX002 (ip), vehicle: saline + alcohol 100 % of control | endpoint: mean survival time, dose: 8.13 mg/kg/injection, schedule: Q04DX002 (ip), vehicle: saline + alcohol 101 % of control | endpoint: mean survival time, dose: 16.25 mg/kg/injection, schedule: Q04DX002 (ip), vehicle: saline + alcohol 101 % of control | endpoint: mean survival time, dose: 32.5 mg/kg/injection, schedule: Q04DX002 (ip), vehicle: saline + alcohol 97 % of control | endpoint: mean survival time, dose: 65.0 mg/kg/injection, schedule: Q04DX002 (ip), vehicle: saline + alcohol 101 % of control | endpoint: mean survival time, dose: 130.0 mg/kg/injection, schedule: Q04DX002 (ip), vehicle: saline + alcohol 107 % of control

COc1ccccc1NC(=O)CSC(N)=O
inactive: endpoint: mean survival time, dose: 50.0 mg/kg/injection, schedule: Q01DX001 (ip), vehicle: saline 98 % of control | [17] 97 % of control | endpoint: mean survival time, dose: 100.0 mg/kg/injection, schedule: Q01DX009 (ip), vehicle: saline 102 % of control | [6] 94 % of control | [18] 103 % of control | endpoint: mean survival time, dose: 200.0 mg/kg/injection, schedule: Q01DX009 (ip), vehicle: saline 93 % of control | [7] 91 % of control | [19] 97 % of control | endpoint: mean survival time, dose: 400.0 mg/kg/injection, schedule: Q01DX009 (ip), vehicle: saline 96 % of control | endpoint: mean survival time, dose: 400.0 mg/kg/injection, schedule: Q04DX003 (ip), vehicle: saline 91 % of control

CC(=O)C1CCC2C3CC=C4CC(n5ccc(=O)[nH]c5=O)CCC4(C)C3CCC12C (stereo not drawn)
inactive: endpoint: mean survival time, dose: 12.5 mg/kg/injection, schedule: Q04DX003 (ip), vehicle: Klucel (hydroxypropylcellulose) (HPC) 97 % of control | [14] 101 % of control | [15] 97 % of control | [16] 97 % of control | endpoint: mean survival time, dose: 200.0 mg/kg/injection, schedule: Q04DX003 (ip), vehicle: Klucel (hydroxypropylcellulose) (HPC) 92 % of control

CCCCCCCCCCCCCCC(=O)Nc1ccccc1
inactive: endpoint: mean survival time, dose: 12.5 mg/kg/injection, schedule: Q04DX002 (ip), vehicle: saline with Tween-80 101 % of control | endpoint: mean survival time, dose: 25.0 mg/kg/injection, schedule: Q04DX002 (ip), vehicle: saline with Tween-80 96 % of control | endpoint: mean survival time, dose: 50.0 mg/kg/injection, schedule: Q04DX002 (ip), vehicle: saline with Tween-80 86 % of control | [2] 89 % of control

CCCCCCCCCCC(CCCCCCCCCC)Cc1ccccc1
inactive: [17] 98 % of control | [18] 98 % of control | [19] 93 % of control
